Experimental data reported in US20200345689A1, “METHODS AND CO[…] RRx-001 FOR RADIOPROTECTION” (EpicentRx, Inc., priority 2018, published 2020).

Tests used:
[1] = tested on: heme oxygenase 1 (HO-1); assay: Western blot of ARE protein expression in hMSC: HO-1; format: cell-based, human; conditions: 5 mM RRx-001 for 16 hours
Procedure: (§1) Antioxidant response element (ARE) genes such as heme oxygenase 1 (HO-1), NAD(P)H Dehydrogenase [Quinone] 1 (NQO-1) and Superoxide Dismutase (SOD) are involved in the detoxification and elimination of reactive oxidants.
(§2) Expression of ARE proteins was assayed in hMSC, macrophages, and monocytes following in vitro irradiation of the cells, which were pretreated with RRx-001 or vehicle. Protein expression was assayed by Western blotting and protein quantification.
(§3) hMSC were treated for 16 hours with […] RRx-001 or the vehicle control (0.05% DMSO), irradiated at 10 Gy or sham-irradiated and the protein collected 8 or 24 hours post-sham or irradiation. Human monocytic leukemic THP-1 and U937 cells were differentiated into macrophages with 50 nM Phorbol 12-myristate 13-acetate (PMA) for 24 hours before treatment. Differentiated and non-differentiated cells were treated with […] RRx-001 or 0.05% DMSO (vehicle control) for 16 hours prior to radiation. The cells were irradiated at 5 Gy or sham-irradiated and collected 4-8 hours later for both analysis. For each experiment, duplicates of each sample were run.

[2] = tested on: SOD1 and 2; assay: Western blot of ARE protein expression in hMSC: SOD1 and 2; format: cell-based, human; conditions: 5 mM RRx-001 for 16 hours, 8 hours after 10 Gy irradiation
Procedure: as §1, §2, §3

[3] = tested on: male Syrian Golden Hamsters; assay: Oral mucositis induced by acute radiation in hamsters; format: in vivo
Procedure: In this example, the ability of RRx-001 to treat oral mucositis induced by acute radiation was assess in hamsters.
Fifty-six (56) male Syrian Golden Hamsters were used in the study. Mucositis was induced by administering an acute radiation dose of 40 Gy directed to the left buccal cheek pouch on Day 0 at a rate of 2-2.5 Gy/min. Mucositis was evaluated clinically starting on Day 6 and continuing on alternate days until Day 28. Hamsters reaching a mucositis severity score of 4 or higher received buprenorphine (0.5 mg/kg) SC twice a day for 48 hours or until score dropped below 4.
Dosing was scheduled as follows: for animals in Groups 1-4, animals were dosed with RRx-001 (1, 3, or 10 mg/kg) or vehicle (1:2 DMA:PEG400 vol:vol ratio) once a day (QD) on Days −4, −1, 1, 4, 7, 11, 14, 18, 21, and 25 via intraperitoneal (IP) administration; animals in Groups 5-7 were dosed QD with RRx-001 (1, 3, or 10 mg/kg) on Days −4, −1, 1, 8, 15, and 22.
The significance of differences observed between the control and treatment group was evaluated by comparing the days with mucositis scores≥3 and <3 between groups using chi-square analysis. […] The percentage of animal days with a score of ≥3 in the Vehicle Group was 57.29%. […] There were numerous days where animals dosed with RRx-001 had percent ulceration days that were lower (which can be interpreted as ameliorative of disease severity) in comparison to vehicle-dosed animals.
An analysis of the severity of mucositis was performed using the Mann-Whitney rank sum analysis to compare the visual mucositis scores for the treatment group to the Vehicle control group on each day of evaluation. In this analysis, 2 days of significant reduction in the mucositis score are generally required before it is regarded as meaningful.

[4] = tested on: superoxide dismutase; assay: Superoxide dismutase activity assay in hMSC; format: cell-based, human; conditions: 5 mM RRx-001 for 16 hours, 8 hours after 10 Gy irradiation
Procedure: The activity of superoxide dismutase activity was also assayed in hMSC. hMSC were treated for 16 hours with […] RRx-001 or vehicle, irradiated at 10 Gy or sham-irradiated and whole cell homogenate collected according to the manufacture's protocol. The assay measures the activity of all three forms of SOD. The amount of SOD activity (U/mL) was normalized to protein levels.

[5] = tested on: NQO-1; assay: Western blot of NQO-1 in U937 macrophages; format: cell-based, human; conditions: 3 mM RRx-001 for 16 hours, sham and irradiated groups
Procedure: as §2, §3

[6] = tested on: NAD(P)H Dehydrogenase [Quinone] 1 (NQO-1); assay: Western blot of ARE protein expression in hMSC: NQO-1; format: cell-based, human; conditions: 5 mM RRx-001 for 16 hours, all groups
Procedure: as §1, §2, §3

[7] = tested on: HO-1; assay: Western blot of HO-1 in U937 monocytes and macrophages; format: cell-based, human; conditions: 3 mM RRx-001 for 16 hours
Procedure: as §2, §3

O=C(CBr)N1CC([N+](=O)[O-])([N+](=O)[O-])C1 [RRx-001, 2-bromo-1-(3,3-dinitroazetidin-1-yl)ethan-1-one]
increase in HO-1 expression ([1]; 24 hours post-sham or irradiation): 2-3.5 fold
increase in HO-1 expression ([1]; sham and 10 Gy irradiated groups, 8 hours post-sham or irradiation): 22-26 fold
SOD1 and 2 expression [2]: slight increase
percent ulceration (mucositis score ≥3) ([3]; 10 mg/kg, Groups 2 and 5, only dosed on Days −4, −1, and 1): best response in decreasing percent ulceration
percent days of ulceration, twice weekly dosing vs dosing one time per week ([3]; 3 and 1 mg/kg concentrations (Groups 4 vs. Group 7)): more beneficial effects on percent days of ulceration
mean daily mucositis scores ([3]; Group 2: 10 mg/kg IP, dosing terminated after Day 1, 40 Gy to left buccal cheek pouch): modest but significant enhancement of disease healing
percentage of days with a mucositis score of ≥3 in comparison to the Vehicle Group ([3]; Group 2: 10 mg/kg on Days −4, −1, 1, chi-square, p<0.01): statistically lower
mean daily mucositis scores ([3]; all other treatment groups (Groups 3-7: 1, 3 or 10 mg/kg IP)): tracked fairly close to each other, and with Vehicle dosed controls
mucositis scores compared to the Vehicle control group ([3]; animals dosed with 1 mg/kg): multiple days of significant improvement
mucositis scores compared to the Vehicle control group ([3]; animals dosed with 10 mg/kg): multiple days of significant improvement
Superoxide Dismutase Activity [4]: did not increase
NQO-1 expression [5]: no change
NQO-1 expression [6]: slightly reduced
HO-1 production ([7]; U937 macrophages, sham and irradiated groups): increased HO-1 production
HO-1 expression ([7]; U937 monocyte fraction): significant increase in HO-1
